Test results reported in publication PMC2900529 (FEBS letters, 2010).

Legend:
[1] = target: T1, E. coli LysRS (Escherichia coli, UniProt P0A8N3); assay: amino acid activation; format: biochemical; details: analog 25 mM; ATP
T1 sequence (P0A8N3 2-505): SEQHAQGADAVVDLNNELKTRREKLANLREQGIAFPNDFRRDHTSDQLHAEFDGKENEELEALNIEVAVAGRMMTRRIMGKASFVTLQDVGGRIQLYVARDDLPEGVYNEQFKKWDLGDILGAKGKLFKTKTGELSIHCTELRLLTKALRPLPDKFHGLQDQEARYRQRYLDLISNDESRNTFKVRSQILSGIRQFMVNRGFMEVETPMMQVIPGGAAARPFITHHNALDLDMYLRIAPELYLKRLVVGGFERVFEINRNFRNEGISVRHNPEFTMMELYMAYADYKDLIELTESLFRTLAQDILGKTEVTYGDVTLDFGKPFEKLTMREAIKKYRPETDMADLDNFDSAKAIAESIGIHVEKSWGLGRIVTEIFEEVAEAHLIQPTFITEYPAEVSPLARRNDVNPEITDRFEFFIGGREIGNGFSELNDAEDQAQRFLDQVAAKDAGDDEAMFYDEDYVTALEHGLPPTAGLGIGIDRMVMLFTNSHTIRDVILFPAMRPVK

[2] = target: T2, GenX (PoxA, YjeA) (Escherichia coli, UniProt P0A8N7); assay: inhibition of lysine activation, ATP-[…]PPi exchange; format: biochemical
T2 sequence (P0A8N7 1-325): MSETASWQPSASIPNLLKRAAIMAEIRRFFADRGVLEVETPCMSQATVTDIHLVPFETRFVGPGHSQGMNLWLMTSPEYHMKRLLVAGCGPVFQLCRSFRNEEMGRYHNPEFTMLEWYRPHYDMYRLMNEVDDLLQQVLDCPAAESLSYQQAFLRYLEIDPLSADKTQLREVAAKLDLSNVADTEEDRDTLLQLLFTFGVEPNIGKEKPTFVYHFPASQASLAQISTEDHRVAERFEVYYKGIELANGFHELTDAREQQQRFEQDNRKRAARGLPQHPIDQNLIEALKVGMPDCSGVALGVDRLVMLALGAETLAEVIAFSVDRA

Ki [2]	Structure (SMILES)	amino acid activation [1]
	NCCSC[C@H](N)C(=O)O [compound 1, S-(2-aminoethyl)-L-cysteine]	E. coli LysRS readily activates S-(2-aminoethyl)-L-cysteine (AEC), ornithine
280 µM	NCCCC[C@H](N)C(N)=O [compound 3, lysinamide]	
150 µM	NCCCC[C@H](N)C(=O)NO [compound 2, L-lysine hydroxamate]	
